Source: US20260035367A1 (Celgene Corporation, priority 2021, published 2026)
Read-outs that look alike come from different tables or passages of the source.

Assays:
[1] = target: T1, Recombinant human PKC-theta (His-tagged 362-706) (Homo sapiens, UniProt Q04759); experiment: PKC-theta inhibition assay (HTRF KinEASE kit); type: biochemical; settings: ATP 6.5 μM, STK substrate 525 nM
T1 construct: Recombinant human PKC-theta (His-tagged 362-706); His
Description: PKC-theta and PKC-delta biochemical activities were measured using the PKC-theta HTRF KinEASEkit kit, according to manufacturer's instructions (Cisbio, catalogue number 61ST1PEJ). Briefly, the kinase buffer component of the kit was supplemented with 10 mM MgCl2, 1 mM DTT and 0.1% Tween 20. […] The streptavidin_XL665 and STK antibody-cryptate detection reagents were mixed according to the manufacturer's instructions. Test compounds were diluted in DMSO in a series of 10 semi-log step doses; 10 nL of each compound dose were dispensed in 384 well plates. […] The reaction was started by addition of the substrate and ATP and incubated at 25° C. for 30 minutes or 20 minutes for the PKC-theta and PKC-delta assays, respectively. The detection reagents were added, and the plate was incubated in the dark for 2 hours. […] The ratio of acceptor and donor emission signals was calculated for each well. Percent inhibition values were calculated from the HTRF ratios at different doses and fitted to a 4-parameter logistic curve to determine IC50 values (see Table 2).

[2] = test system: IL-2 secretion by human effector memory T cells (TEM); experiment: Effector memory T cells IL-2 release assay (CD3/CD28 stimulation, HTRF IL-2 detection); type: cell-based; settings: 24 h; for IC50: Homo sapiens, T-cell
Description: Test compound-mediated inhibition of NFκB signalling in T cells was assessed by quantification of the IL-2 secretion by human effector memory T cells (TEM) upon treatment and stimulation. Human TEM cells were isolated from buffy coats of healthy donors obtained from the French blood bank.
Finally, 10 doses of test compound, originally prepared in DMSO by serial semi-log step dilution, were also added to cells in triplicate wells. Final DMSO concentration in wells was 0.1% in a total volume of 100 μL complete medium. Plates were incubated for 24 h at 37° C. in 5% CO2 atmosphere. After incubation, cell suspensions were centrifuged at 400×g and culture supernatants were recovered and stored at −80° C. […] IL-2 levels were determined in cell supernatants using an HTRF human IL-2 detection kit (Cisbio, cat #62HIL02PEH).

[3] = target: T2, Recombinant human PKC-delta (His-tagged 345-676) (Homo sapiens, UniProt Q05655); experiment: PKC-delta inhibition assay (HTRF KinEASE kit); type: biochemical; settings: ratio, PKC-theta vs PKC-delta HTRF; for PKC-theta/PKC-delta selectivity (binned): binned A to G
T2 construct: PKC-delta (His-tagged 345-676); His

[4] = binned A to H, read-out: PKC-theta HTRF pIC50 (binned) (converted)
[5] = read-out: PKC-theta HTRF pIC50 (converted)
[6] = binned A to G, read-out: PKC-theta IL2 pIC50 (binned) (converted)
[7] = read-out: PKC-theta IL2 pIC50 (converted)

T1 sequence (Q04759 362-706): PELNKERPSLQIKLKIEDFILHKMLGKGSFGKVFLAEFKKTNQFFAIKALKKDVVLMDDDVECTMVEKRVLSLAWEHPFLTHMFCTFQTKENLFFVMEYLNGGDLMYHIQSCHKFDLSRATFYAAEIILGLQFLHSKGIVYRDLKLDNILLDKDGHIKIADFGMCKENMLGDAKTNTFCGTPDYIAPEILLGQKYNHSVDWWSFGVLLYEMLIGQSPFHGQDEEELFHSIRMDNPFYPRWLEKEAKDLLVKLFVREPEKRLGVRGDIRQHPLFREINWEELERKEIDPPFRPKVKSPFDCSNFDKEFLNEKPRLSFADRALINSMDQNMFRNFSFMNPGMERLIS
T2 sequence (Q05655 345-676): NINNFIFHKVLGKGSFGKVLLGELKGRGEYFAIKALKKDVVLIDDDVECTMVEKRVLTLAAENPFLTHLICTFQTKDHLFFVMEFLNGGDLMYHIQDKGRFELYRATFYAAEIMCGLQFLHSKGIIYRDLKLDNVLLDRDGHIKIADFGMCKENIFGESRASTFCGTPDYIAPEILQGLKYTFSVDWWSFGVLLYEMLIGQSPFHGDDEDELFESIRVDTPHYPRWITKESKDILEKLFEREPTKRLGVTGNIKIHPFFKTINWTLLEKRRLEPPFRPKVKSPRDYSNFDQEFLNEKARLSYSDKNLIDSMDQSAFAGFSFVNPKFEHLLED

Compound | IC50 [1, 4] [nM] | IC50 [1, 5] [nM] | IC50 [2, 6] [nM] | IC50 [2, 7] [nM] | PKC-theta/PKC-delta selectivity [3] | PKC-theta/PKC-delta selectivity (binned) [3] | PKC-theta IL2 pIC50 [2] | PKC-theta IL2 pIC50 (binned) ([2]; binned A to G)
CO[C@]1(C)C(=O)Nc2nccc(-c3cc(Cl)cc(N4CCNC[C@H]4C)n3)c21 (single isomer, unassigned) [Example 172] | 3.16 to 10 | 10 | 100 to 316 | 100 | 13 | D (a ratio of between 10 and 20) | – | –
COC1(C)C(=O)Nc2nccc(-c3cc(C(F)(F)F)cc(N4CCN[C@@H](C)C4)n3)c21 (stereo partly drawn) [Example 112] | 10 to 31.6 | 15.8 | 100 to 316 | 251 | 20 | C (a ratio of between 20 and 30) | – | –
CC1(C)C(=O)Nc2nccc(-c3cc(C(F)(F)F)cc(NC4CCNC4)n3)c21 (stereo not drawn) [Example 100] | 31.6 to 100 | 63.1 | > 1000 | 5010 | 30 | B (a ratio of between 30 and 50) | – | –
C[C@@H]1CNCCN1c1cc(C(F)(F)F)cc(-c2ccnc3c2C(C)(C)C(=O)N3)n1 [Example 102] | 1 to 3.16 | 1.58 | 10 to 31.6 | 20 | 14 | D (a ratio of between 10 and 20) | – | –
CC1C(=O)Nc2nccc(-c3cccc(N4CCNCC4)c3)c21 (stereo not drawn) [Example 5] | 31.6 to 100 | 79.4 | 316 to 1000 | 794 | 4 | F (a ratio of between 1 and 5) | – | –
CC1(C)C(=O)Nc2nccc(-c3cc(C(F)(F)F)cc(N4CCNCC4C(F)F)n3)c21 (stereo not drawn) [Example 160] | 1 to 3.16 | 3.16 | 31.6 to 100 | 100 | 9 | E (a ratio of between 5 and 10) | – | –
CCC1(C)C(=O)Nc2ncc(F)c(-c3cc(C(F)(F)F)cc(N4CCNC[C@H]4C)n3)c21 (stereo partly drawn) [Example 157] | 3.16 to 10 | 7.94 | 100 to 316 | 158 | 20 | C (a ratio of between 20 and 30) | – | –
CC1(C)C(=O)Nc2nccc(-c3cc(Cl)cc(N4CCNCC4)c3)c21 [Example 40] | 31.6 to 100 | 31.6 | 316 to 1000 | 398 | 4 | F (a ratio of between 1 and 5) | – | –
C[C@H]1CN(c2cc(C(F)(F)F)cc(-c3ccnc4c3C(C)(C)C(=O)N4)n2)CCCN1 [Example 185] | 3.16 to 10 | 5.01 | 31.6 to 100 | 39.8 | 27 | C (a ratio of between 20 and 30) | – | –
C[C@H]1CNCCN(c2cc(C(F)(F)F)cc(-c3ccnc4c3C(C)(C)C(=O)N4)n2)C1 [Example 181] | 10 to 31.6 | 12.6 | 100 to 316 | 158 | 12 | D (a ratio of between 10 and 20) | – | –
CCC1(O)C(=O)Nc2nccc(-c3cc(C(F)(F)F)cc(N4CCN[C@@H](C)C4)n3)c21 (stereo partly drawn) [Example 111] | 3.16 to 10 | 5.01 | 100 to 316 | 126 | 17 | D (a ratio of between 10 and 20) | – | –
CC1(C)C(=O)Nc2nccc(-c3cccc(C4CCNCC4)c3)c21 [Example 45] | 100 to 316 | 200 | > 1000 | 3980 | 2 | F (a ratio of between 1 and 5) | – | –
Cc1cc(-c2ccnc3c2C(C)(C)C(=O)N3)cc(N2CCNCC2)c1 [Example 61] | 31.6 to 100 | 50.1 | 316 to 1000 | 794 | 6 | E (a ratio of between 5 and 10) | – | –
CC[C@@]1(C)C(=O)Nc2nccc(-c3cc(C(C)(F)F)cc(N4CCN[C@@H](C)C4)n3)c21 (single isomer, unassigned) [Example 200] | 3.16 to 10 | 5.01 | 31.6 to 100 | 79.4 | 27 | C (a ratio of between 20 and 30) | – | –
O=c1[nH]c2nccc(-c3cc(Cl)cc(N4CCNCC4)c3)c2[nH]1 [Example 10] | 316 to 1000 | 316 | > 1000 | 2000 | 1 | F (a ratio of between 1 and 5) | – | –
C[C@@H]1CNCCCN1c1cc(C(F)(F)F)cc(-c2ccnc3c2C(C)(C)C(=O)N3)n1 [Example 190] | 3.16 to 10 | 3.16 | 31.6 to 100 | 79.4 | 32 | B (a ratio of between 30 and 50) | – | –
C[C@@H]1NCCN(c2cc(C(F)(F)F)cc(-c3ccnc4c3C(C)(C)C(=O)N4)n2)[C@@H]1C [Example 169] | 3.16 to 10 | 7.94 | 31.6 to 100 | 100 | 16 | D (a ratio of between 10 and 20) | – | –
CC1C(=O)Nc2nccc(-c3cccc(CN(C)C)c3)c21 (stereo not drawn) [Example 22] | 316 to 1000 | 501 | > 1000 | 1580 | 1 | F (a ratio of between 1 and 5) | – | –
CC[C@]1(C)C(=O)Nc2nccc(-c3cc(C(C)(F)F)cc(N4CCN[C@@H](C)C4)n3)c21 (single isomer, unassigned) [Example 199] | 1 to 3.16 | 1.58 | 10 to 31.6 | 25.1 | 16 | D (a ratio of between 10 and 20) | – | –
COC1(C)C(=O)Nc2nccc(-c3cc(Cl)cc(N4CCN[C@@H](C)C4)n3)c21 (stereo partly drawn) [Example 115] | 3.16 to 10 | 10 | 100 to 316 | 158 | 12 | D (a ratio of between 10 and 20) | – | –
CC1(C)C(=O)Nc2nccc(-c3cc(C(F)(F)F)cc(N4CCCNCC4)n3)c21 [Example 175] | 3.16 to 10 | 5.01 | 31.6 to 100 | 63.1 | 21 | C (a ratio of between 20 and 30) | – | –
CC1(C)C(=O)Nc2nccc(-c3cccc(N4CCNCC4)c3)c21 [Example 23] | 100 to 316 | 100 | > 1000 | 1580 | 2 | F (a ratio of between 1 and 5) | – | –
CC(F)(F)c1cc(-c2ccnc3c2C(C)(C)C(=O)N3)nc(N2CCCNCC2)c1 [Example 203] | 3.16 to 10 | 6.31 | 31.6 to 100 | 100 | 14 | D (a ratio of between 10 and 20) | – | –
CC[C@@]1(C)C(=O)Nc2nccc(-c3cc(Cl)cc(N4CCNC[C@H]4C)n3)c21 (single isomer, unassigned) [Example 164] | 1 to 3.16 | 2 | 10 to 31.6 | 12.6 | 5 | F (a ratio of between 1 and 5) | – | –
CC[C@]1(C)C(=O)Nc2nccc(-c3cc(C(F)(F)F)cc(N4CCN[C@@H](C)C4)n3)c21 (single isomer, unassigned) [Example 153] | 1 to 3.16 | 3.16 | 10 to 31.6 | 31.6 | 13 | D (a ratio of between 10 and 20) | – | –
C[C@H]1CN(c2cc(-c3ccnc4c3[C@@](C)(O)C(=O)N4)cc(C(F)(F)F)c2)CCN1 (single isomer, unassigned) [Example 82] | 316 to 1000 | 1000 | – | – | 3 | F (a ratio of between 1 and 5) | 5.4 | G (a measured pIC50<6.0)
